Series [1] in a line: Trp fluorescence emission anisotropy with liposomes. It counts as physicochemical. The conditions noted are these: 37° C. The procedure: Fluorescence polarization of the Trp residue of CTT as a function of increasing concentration of liposomes was measured using rotating polarizers in the excitation and emission beams, with a bandpass of 10 nm. The results are expressed as emission anisotropy (Lakowicz, 1999) calculated as follows: r=(I∥−I⊥)/(I∥+2I⊥). In this equation I⊥ and I∥ represent the emission intensity perpendicular and parallel, respectively, to the excitation polarizer.

Series [2] in a line: Trp quenching by I- (Stern-Volmer). The conditions noted are these: I- quencher. It counts as physicochemical. The procedure: The extent of exposure of Trp to the aqueous phase was studied using I— as a collisional quencher (Lakowicz, 1999). The extent of quenching was calculated by using the equation: F0/F=1+k[Q]=1+kqτ0[Q] where F0 and F are Trp fluorescence intensities at 345 nm in the absence and presence of the quencher, Q, τ0 is Trp fluorescence lifetime in the absence of the quencher, k is the Stern-Volmer constant (obtained from the slope of the linear fit of the data). Fluorescence of Trp in CTT (5 μM) and its quenching were measured in the absence and presence of POPC/POPE (80:20, mol/mol) LUVs (final lipid concentration of 0.5 mM). The results were corrected for background caused by PBS and liposomes. Assay for lipid mixing. The ability of the CTT, CLP, STT, and CWL peptides to induce liposome fusion was assessed by measuring lipid mixing, as described earlier (Struck et al., 1981). In brief, NBD-PE (X=0.01) and DPPRho (X=0.01) were incorporated into liposomes (POPC/POPE, 78/20, mol/mol). Due to the spectral overlap of NBD-PE (donor) emission and DPPRho (acceptor) absorption resonance energy transfer between these dyes is highly efficient. As liposomes containing NBD-PE and DPPRho are mixed with non-labeled liposomes, fusion is observed as an increase in the emission intensity of NBD-PE due to the dilution of probes. […] All fluorescence measurements were done at 37° C.

In a further series the target is T1, MMP-2 (Homo sapiens, UniProt P08253).
T1 construct: purchased Boehringer Mannheim GmbH (Germany)
T1 sequence (P08253 110-660): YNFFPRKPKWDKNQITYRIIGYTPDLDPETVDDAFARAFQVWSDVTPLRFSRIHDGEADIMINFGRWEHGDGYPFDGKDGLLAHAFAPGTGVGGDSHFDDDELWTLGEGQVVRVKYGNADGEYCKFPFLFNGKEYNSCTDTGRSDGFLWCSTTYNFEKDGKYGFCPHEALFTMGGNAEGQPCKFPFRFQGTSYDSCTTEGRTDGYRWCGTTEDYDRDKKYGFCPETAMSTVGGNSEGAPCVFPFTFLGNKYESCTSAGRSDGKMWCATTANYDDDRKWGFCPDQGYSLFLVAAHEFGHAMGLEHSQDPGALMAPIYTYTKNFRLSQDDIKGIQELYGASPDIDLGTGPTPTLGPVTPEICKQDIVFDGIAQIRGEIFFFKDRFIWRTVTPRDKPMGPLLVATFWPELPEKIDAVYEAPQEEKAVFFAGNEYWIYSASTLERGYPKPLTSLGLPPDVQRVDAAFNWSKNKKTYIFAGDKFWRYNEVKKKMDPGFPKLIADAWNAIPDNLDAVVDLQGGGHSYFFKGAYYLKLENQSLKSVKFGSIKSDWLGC
The experiment in a line: Casein zymography, inhibition of MMP-2. It counts as biochemical. The conditions noted are these: 85 μM peptide. The procedure:
Assay for gelatinases. Inhibition of MMP-9 and MMP-2 by the different synthetic peptides was measured using casein zymography (Halinen et al., 1996). MMP-9 was purified as described (Sorsa et al., 1997). Subsequently, MMP-2 (2.5 μg) or MMP-9 (2.5 μg) was run on a 10% SDS-PAGE containing two mg/ml casein. The gel was first washed in Triton X-100 containing buffer to remove SDS, and it was cut into five slices which were immersed into peptide (CTT, CLP, CWL or STT) containing solutions (85 μM). After incubation for 48 hrs at 37° C., the gels were stained with Coomassie blue, scanned, and the digested areas quantitated using image analysis (Global Lab Image 3.2, Data Translation Inc. and Acuity Imaging Inc., Marlboro, Mass., USA).

Another series relates to tumor. The note with it: mouse models; cited from earlier work.
In another series the test system is U937 cells. Kind of series: Cell killing by Adriamycin-containing liposomes, EthD-1 viability assay. It counts as cell-based. The note with it: U937, 24 h, peptide 85 μM, Adriamycin 0.4 μM. The procedure: Viability assays. Peptide-liposome complexes with the encapsulated adriamycin were made as described above, yielding final concentrations of peptide, lipid, and adriamycin of 85 μM, 0.2 mM, and 0.4 μM, respectively, and were subsequently added to a ten μl (10^5 cells) sample of U937 cells. For the detection of dead cells EthD-1 was used. This fluorophore is membrane-impermeable and emits fluorescence only when bound to DNA (Papadopoulos et al., 1994). Accordingly, EthD-1 readily enters dead cells and binds to their DNA, its fluorescence intensity correlating to the amount of dead cells. EthD-1 emission was measured using microplate reader with excitation at 495 nm and emission at 635 nm. Student's t-test was used to assess statistical significance.

The test system of the next series is MMP-2 and MMP-9. The note with it: cited from earlier work.
Series [3] is described as follows: Assay for lipid mixing (liposome fusion, NBD-PE/DPPRho). It counts as physicochemical. The conditions noted are these: within 15 min. The procedure:
The extent of exposure of Trp to the aqueous phase was studied using I— as a collisional quencher (Lakowicz, 1999). The extent of quenching was calculated by using the equation: F0/F=1+k[Q]=1+kqτ0[Q] where F0 and F are Trp fluorescence intensities at 345 nm in the absence and presence of the quencher, Q, τ0 is Trp fluorescence lifetime in the absence of the quencher, k is the Stern-Volmer constant (obtained from the slope of the linear fit of the data). Fluorescence of Trp in CTT (5 μM) and its quenching were measured in the absence and presence of POPC/POPE (80:20, mol/mol) LUVs (final lipid concentration of 0.5 mM). The results were corrected for background caused by PBS and liposomes. Assay for lipid mixing. The ability of the CTT, CLP, STT, and CWL peptides to induce liposome fusion was assessed by measuring lipid mixing, as described earlier (Struck et al., 1981). In brief, NBD-PE (X=0.01) and DPPRho (X=0.01) were incorporated into liposomes (POPC/POPE, 78/20, mol/mol). Due to the spectral overlap of NBD-PE (donor) emission and DPPRho (acceptor) absorption resonance energy transfer between these dyes is highly efficient. As liposomes containing NBD-PE and DPPRho are mixed with non-labeled liposomes, fusion is observed as an increase in the emission intensity of NBD-PE due to the dilution of probes. Excitation and emission wavelengths for NBD-PE at 430 nm and 530 nm were used. All fluorescence measurements were done at 37° C.

Series [4] in a line: Trp fluorescence I350/I330 ratio. It counts as physicochemical. The procedure:
Fluorescence spectroscopy. The environments of the tryptophan residues of CTT, STT, CLP, and CWL in liposomes were studied by fluorescence spectroscopy. The center of Trp fluorescence peak is at ˜350 nm when in water, whereas in a hydrophobic environment the emission is centered near 330 nm. Accordingly, changes in the microenvironment of Trp can be monitored by measuring I350/I330, the ratio of the emission at 350 nm to that at 330 nm (Lakowicz, 1999). Tryptophan fluorescence was recorded with a Perkin Elmer LS 50 B spectrofluorometer equipped with a magnetically stirred and thermostated cuvette compartment. […] Excitation and emission bandpasses were 10 nm and 10 nm, respectively. Excitation wavelength was 295 nm, and emission spectra were recorded in the range 300 to 400 nm. […]

Consider one molecule from patent publication US20050271588A1, “Liposome targeting of matrix metalloproteinase inhibitors” (priority 2001, published 2005).

Positions of bridges follow the written chain, without caps; N, C: chain ends. Residues, ends and D or L forms follow the SMILES beside them.

In the case of `CC(C)C[C@@H]1NC(=O)[C@H]([C@@H](C)O)NC(=O)[C@H](Cc2ccccc2)NC(=O)CNC(=O)[C@H](Cc2c[nH]c3ccccc23)NC(=O)[C@H](Cc2c[nH]cn2)NC(=O)[C@H]([C@@H](C)O)NC(=O)[C@H]([C@@H](C)O)NC(=O)[C@@H](N)CSSC[C@@H](C(=O)O)NC1=O` [CTT] (H-CTTHWGFTLC-OH; disulfide 1-10; N-terminus and C-terminus assumed), the “Trp emission anisotropy r” value in series [1] (230 μM phospholipid, CTT 5 μM) was found to be 0.349; in series [1] (absence of liposomes, CTT 5 μM in PBS), 0.065. Further, the Stern-Volmer constant in series [2] (absence of liposomes) was determined as 0.0087; in series [2] (presence of liposomes), 0.0034. Moreover, on MMP-2, the “Inhibition of MMP-2 activity” value is “approx. 70%”. The “Tumor progression in vivo” value with tumor was “inhibited”. In the series on U937 cells, the “Increase in killing of cells vs Adriamycin liposomes without peptide” value is reported as 4.1 fold. Moreover, the “Selective inhibition of MMP family members” value with MMP-2 and MMP-9 is “selectively inhibit the activity of MMP-2 and MMP-9”. Also, the “Lipid mixing / vesicle fusion (NBD-PE emission)” value in series [3] is given as “lack of lipid mixing”. The “I350/I330 of Trp residue” value in series [4] (in PBS) was determined as 1.4; in series [4] (presence of LUVs (0.5 mM total phospholipid)), 1.00.
